Values joined by “and” are separate entries in the source; they are usually repeats but may differ in a detail not shown here. Equal values may be shown once. “Also recorded” adds a separate entry of the source.
Test system: endotoxin-induced lung injury
Assay: porcine model of LPS-induced acute lung injury: haemodynamics, ventilation/mechanics, blood gases, P/F, chemistry, temperature, survival
Assay type: in vivo, pig
Parameters: AF baseline / AF end / Ven. sat end: unit not given here; PaO2 3 h / PaO2 6 h: unit: kPa
Method: The animals were bred for purpose at the Forslunda Agricultural School in Umeå, Sweden. The pigs were pairwise kept in 8 m^2 pens before start of experiments and were fed twice daily with a commercially available pig diet without antimicrobials, and with free access to water. Photoperiods were 12:12 h light:dark. Room temperature in their stall was 20 °C ± 1 °C.
After overnight fasting, but with free access to water and hay, animals were pre-medicated with ketamine (Ketaminol vet® 100 mg/mL; Intervet International B.V, Boxmeer, Netherlands), xylazine (Rompun® vet 20 mg/mL; Bayer Animal Health, Copenhagen, Denmark) and atropine (Atropin Mylan 0.5 mg/mL; Mylan AB, Stockholm, Sweden) by intramuscular injection before an auricular vein was cannulated. Anesthesia was induced with ketamine and midazolam (Midazolam Hameln 5 mg/mL, Hameln Pharmaceuticals, Hameln, Germany) and maintained with ketamine, midazolam, xylazine and fentanyl (Fentanyl 0.05 mg/mL, B. Braun Medical AB, Danderyd, Sweden). The animals were orotracheally intubated and ventilated with tidal volume 8–9 mL/kg, PEEP 8 cmH2O, and a respiratory rate set to achieve an end-tidal carbon dioxide of 5–5.5 kPa.
One animal served as a pharmacokinetic pilot, with arterial and venous catheters placed in a cut-down in the neck. The remaining 21 animals were used for the randomized study (Figure 1). After intubation and start of mechanical ventilation, a second auricular vein cannula was placed and infusion of either AEPU or placebo according to randomization was started. After 2 h of infusion of AEPU or placebo, an infusion of LPS was started. A bolus of 0.1 mg/kg was administered during 30 min after which the infusion rate was adjusted to 0.01 mg/kg/h. During the time between start of AEPU or placebo and LPS infusion, neck dissection was performed, exposing the v jugularis externa and carotid artery. A pulmonary artery introducer and an arterial cannula were placed in vein and artery respectively, and a pulmonary artery catheter introduced through the introducer and the tip placed in the correct position in the pulmonary artery placement guided by continuous invasive pressure monitoring or, when difficult, assisted by fluoroscopy. All surgical procedures were performed under sterile conditions.
AEPU was synthesized according to Kim et al. ([Kim et al., 2007]), delivered in 60 mg vials and dissolved in 30 mL pure ethanol as a co-solvent, of which either 20 mL was added to 980 mL of sodium chloride 9 mg/mL or 8 mL–392 mL sodium chloride, creating a solution of 0.04 mg/mL AEPU and 2% ethanol. The placebo infusion was prepared by adding either 20 mL of pure ethanol to 980 mL of sodium chloride 9 mg/mL or 8 mL of pure ethanol to 392 mL sodium chloride, creating a 2% ethanol solution. Each animal received an infusion of either 0.1 mg/kg/h AEPU or the corresponding volume of placebo solution.
A total of 200 mg of prefabricated lipopolysaccharides (LPS, Escherichia coli serotype 0,111:B4, Sigma-Aldrich (Product no L4130), St. Louis, MO, United States of America) was dissolved in 40 mL of sterile water, carefully mixed and filtered, creating a solution of 5 mg/mL. This preparation was stored frozen (−20 °C) in 1 mL partitions. For each animal, 2 mL of the thawed solution was mixed and diluted in 18 mL of sodium chloride, finally creating a 0.5 mg/mL LPS solution for infusion.
All animals were monitored with pulse oximetry, heart rate, ECG, systemic arterial blood pressure (ABP), pulmonary arterial pressure (PAP), central venous pressure (CVP) temperature, tidal volumes, respiratory rate and end tidal carbon dioxide. At baseline, and at 3 h, 6 h and at the end of the experiment, pulmonary capillary wedge pressure (PCWP) was measured together with arterial and venous blood gas analyses, as well as cardiac output calculations. […]

[1] = 3 h, individual animals, listed as sEH-i 950
[2] = 6 h, individual animals, listed as sEH-i 950
[3] = Lungmekanik, 3 h, individual animals, listed as sEH-i 950
[4] = Lungmekanik, 6 h, individual animals, listed as sEH-i 950
[5] = Lungmekanik, baseline, individual animals, listed as sEH-i 950
[6] = Lungmekanik, end, individual animals, listed as sEH-i 950
[7] = baseline, individual animals, listed as sEH-i 950
[8] = end, individual animals, listed as sEH-i 950
[9] = individual animals, 3 h, listed as sEH-i 950

SMILES: CCOCCOCCOCCCCCNC(=O)NC12CC3CC(CC(C3)C1)C2 [Compound 950]
- AF 3 h [1]: 41 and 50 and 42 and 48 and 30 and 45 and 39 and 44 and 40
- FiO2 3 h [1]: 0.4 and 0.5
- PaO2 3 h [1]: 22.1 and 20.1 and 17 and 22.7 and 19.3 and 16.7 and 9 and 8.1 and 7.3 and 14.7
- AF 6 h [2]: 40 and 54 and 50 and 48 and 30 and 45 and 39 and 44
- FiO2 6 h [2]: 0.4 and 0.5 and 0.8 and 0.7 and 1
- PaO2 6 h [2]: 19.6 and 12.3 and 11.8 and 18.6 and 18.5 and 14.7 and 8.7 and 9.4 and 6.8 and 7.9
- lung injury development in LPS treated pigs (AEPU 0.1 mg/kg/h infusion vs placebo): did not attenuate
- Premature death (AEPU group, did not survive entire protocol): 40%
- Mortalitet: Aktivt avslut (Ja = actively terminated, Nej = died, individual animals, listed as sEH-i 950): Nej and Ja and Nej*
- PIP 3 h [3]: 31 cmH2O and 28 cmH2O and 32 cmH2O and 24 cmH2O and 26 cmH2O and 34 cmH2O and 39 cmH2O and 44 cmH2O and 36 cmH2O
- Pmedel 3 h [3]: 14 cmH2O and 15 cmH2O and 12 cmH2O and 13 cmH2O and 16 cmH2O and 17 cmH2O
- Pplat 3 h [3]: 26 cmH2O and 23 cmH2O and 22 cmH2O and 27 cmH2O and 28 cmH2O and 25 cmH2O and 34 cmH2O and 33 cmH2O
- PIP 6 h [4]: 32 cmH2O and 33 cmH2O and 28 cmH2O and 30 cmH2O and 22 cmH2O
- Pmedel 6 h [4]: 13 cmH2O and 15 cmH2O and 14 cmH2O and 12 cmH2O
- Pplat 6 h [4]: 27 cmH2O and 26 cmH2O and 23 cmH2O and 21 cmH2O and 18 cmH2O
- PIP baseline [5]: 25 cmH2O and 23 cmH2O and 19 cmH2O and 24 cmH2O and 26 cmH2O and 27 cmH2O
- Pmedel baseline [5]: 12 cmH2O and 15 cmH2O and 13 cmH2O and 11 cmH2O and 14 cmH2O
- Pplat baseline [5]: 19 cmH2O and 16 cmH2O and 18 cmH2O and 22 cmH2O and 17 cmH2O
- PIP end [6]: 30 cmH2O and 37 cmH2O and 29 cmH2O and 28 cmH2O and 46 cmH2O
- Pmedel end [6]: 13 cmH2O and 16 cmH2O and 14 cmH2O
- Pplat end [6]: 24 cmH2O and 29 cmH2O and 22 cmH2O and 28 cmH2O
- PaO2/FiO2 3h (P/F-kvot, 3 h, individual animals, listed as sEH-i 950): 55.25 and 40.2 and 42.5 and 56.75 and 48.25 and 41.75 and 22.5 and 16.2 and 18.25 and 36.75
- PaO2/FiO2 6h (P/F-kvot, 6 h, individual animals, listed as sEH-i 950): 49 and 24.6 and 23.6 and 46.5 and 46.25 and 36.75 and 10.87 and 13.43 and 6.8 and 19.75
- PaO2/FiO2 baseline (P/F-kvot, baseline, individual animals, listed as sEH-i 950): 73.75 and 71.5 and 73 and 67 and 72.75 and 65.25 and 70.5 and 72.25 and 61.75 and 74.75
- PaO2/FiO2 end (P/F-kvot, end, individual animals, listed as sEH-i 950): 49.75 and 16.75 and 24 and 48.75 and 30.5 and 4.4 and 8.7
- FiO2 baseline (baseline, individual animals): 0.4
- AF baseline [7]: 40 and 42 and 26 and 34 and 46
- PaO2 baseline [7]: 29.5 and 28.6 and 29.2 and 26.8 and 29.1 and 26.1 and 28.2 and 28.9 and 24.7 and 29.9
- Mortalitet: Dödsorsak (cause of death, individual animals, listed as sEH-i 950): Cirkulationssvikt; also recorded: Adrenalinet tog slut…; also recorded: *Tubbyte/Hypoxi; also recorded: Lungsvikt/Hypoxi
- P/F 3h - baseline (change of P/F from baseline to 3 h, individual animals, listed as sEH-i 950): -18.5 and -31.3 and -30.5 and -10.25 and -24.5 and -23.5 and -48 and -56.05 and -43.5 and -38
- P/F 6h - baseline (change of P/F from baseline to 6 h, individual animals, listed as sEH-i 950): -24.75 and -46.9 and -49.4 and -20.5 and -26.5 and -28.5 and -59.625 and -58.8214 and -54.95 and -55
- P/F 9h- baseline (change of P/F from baseline to 9 h (end), individual animals, listed as sEH-i 950): -24 and -54.75 and -49 and -18.25 and -34.75 and -66.1 and -63.55
- Mortalitet, kommentarer (comments on clinical course, individual animals, listed as sEH-i 950): Instabil. Död i högersvikt 16.20 trots adrenalin; also recorded: Tidig start adrenalininf pga lågt CO; also recorded: Mycket svårt septisk. Extrema doser adrenalin; also recorded: Mycket svårt septisk. Högersvikt; also recorded: Relativt stabil. Nästan frisk i slutet; also recorded: Försök till tubbyte -> hypoxi + död; also recorded: Standardupplägg. Ter sig septisk redan vid induktion; also recorded: Svårt septisk redan från första början. Instabil. Död i cirkulationssvikt något i förtid. Misslyckad deff; also recorded: Septisk. Kräver adrenalininf. Uttalad lungskada. Lågt CO på slutet. Högdos adrenalin. Svår hjärtsvikt; also recorded: Svår sepsis med ffa svår lungsvikt. Mors i hypoxi efter 6 h. Sista prov (6h) några minuter före död. PSVT upprepat med självterminerande vid LPS-bolus
- Fluid administration total (end of experiment, AEPU group): 5785 (5080–7210) mL
- Urine output (end of experiment, AEPU group): 700 (320–1200) mL
- AF end [8]: 40 and 54 and 50 and 48 and 45 and 39 and 44
- FiO2 end [8]: 0.4 and 0.8 and 0.5 and 1
- PaO2 end [8]: 19.9 and 13.4 and 12 and 19.5 and 12.2 and 4.4 and 8.7
- CO 3 h [9]: 3.2 L/min and 5.3 L/min and 3.6 L/min and 3.3 L/min and 5.7 L/min and 3.1 L/min and 4.2 L/min
- CVP 3 h [9]: 15 mmHg and 21 mmHg and 14 mmHg and 10 mmHg and 17 mmHg and 18 mmHg and 13 mmHg and 16 mmHg
- HR 3 h [9]: 141 and 137 and 175 and 135 and 140 and 119 and 162 and 144 and 164 and 114
- MAP 3 h [9]: 110 mmHg and 107 mmHg and 58 mmHg and 72 mmHg and 94 mmHg and 79 mmHg and 88 mmHg and 106 mmHg and 52 mmHg and 99 mmHg
- MPAP 3 h [9]: 65 mmHg and 39 mmHg and 41 mmHg and 43 mmHg and 46 mmHg and 47 mmHg and 54 mmHg and 51 mmHg and 55 mmHg
- PCWP 3 h [9]: 21 mmHg and 15 mmHg and 17 mmHg and 19 mmHg
- PaCO2 3 h [9]: 4.9 kPa and 5.9 kPa and 6.6 kPa and 5.6 kPa and 6.5 kPa and 5.2 kPa and 5.7 kPa and 6.9 kPa and 7.7 kPa and 5.8 kPa

Reference: PMC12457078, “Inhibition of soluble epoxide hydrolase in endotoxin induced pig lung injury” (Frontiers in Pharmacology, 2025)
